Assays:
[1] = biological target: Casein kinase I isoform gamma-1 (Homo sapiens) (UniProt Q9HCP0); settings: at 10 µM
[2] = biological target: Transient receptor potential cation channel subfamily M member 6 (Homo sapiens) (UniProt Q9BX84); assay: Selectivity interaction (KinomeScan (DiscoverX)) EUB0000092b TRPM6; settings: at 10 µM
[3] = biological target: T1, Inhibitor of nuclear factor kappa-B kinase subunit epsilon (Homo sapiens) (UniProt Q14164); assay: Selectivity interaction (ProQinase) EUB0000171b IKBKE
T1 sequence (whole entry): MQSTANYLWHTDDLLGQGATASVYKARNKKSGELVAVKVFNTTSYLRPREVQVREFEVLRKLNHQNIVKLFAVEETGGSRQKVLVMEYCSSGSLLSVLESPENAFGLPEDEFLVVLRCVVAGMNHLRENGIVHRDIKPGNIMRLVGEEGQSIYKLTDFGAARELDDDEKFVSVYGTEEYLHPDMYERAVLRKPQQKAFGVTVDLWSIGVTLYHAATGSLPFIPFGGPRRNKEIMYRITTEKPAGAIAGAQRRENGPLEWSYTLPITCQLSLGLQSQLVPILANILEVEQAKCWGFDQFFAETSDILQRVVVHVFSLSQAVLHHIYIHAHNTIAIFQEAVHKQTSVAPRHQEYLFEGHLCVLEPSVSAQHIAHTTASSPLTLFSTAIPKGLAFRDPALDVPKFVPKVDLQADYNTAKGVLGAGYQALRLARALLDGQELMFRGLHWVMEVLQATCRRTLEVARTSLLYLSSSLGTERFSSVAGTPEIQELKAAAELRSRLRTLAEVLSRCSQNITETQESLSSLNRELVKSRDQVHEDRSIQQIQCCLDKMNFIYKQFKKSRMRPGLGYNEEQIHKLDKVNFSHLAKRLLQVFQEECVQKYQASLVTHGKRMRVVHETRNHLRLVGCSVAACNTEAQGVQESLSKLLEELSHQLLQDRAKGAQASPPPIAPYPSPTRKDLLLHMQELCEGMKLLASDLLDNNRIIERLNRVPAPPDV

[4] = biological target: Macrophage colony-stimulating factor 1 receptor (Homo sapiens) (UniProt P07333); assay: Selectivity interaction (KinomeScan (DiscoverX)) EUB0001079a CSF1R; settings: at 1 µM
Macrophage colony-stimulating factor 1 receptor (Homo sapiens), sequence (P07333 whole entry): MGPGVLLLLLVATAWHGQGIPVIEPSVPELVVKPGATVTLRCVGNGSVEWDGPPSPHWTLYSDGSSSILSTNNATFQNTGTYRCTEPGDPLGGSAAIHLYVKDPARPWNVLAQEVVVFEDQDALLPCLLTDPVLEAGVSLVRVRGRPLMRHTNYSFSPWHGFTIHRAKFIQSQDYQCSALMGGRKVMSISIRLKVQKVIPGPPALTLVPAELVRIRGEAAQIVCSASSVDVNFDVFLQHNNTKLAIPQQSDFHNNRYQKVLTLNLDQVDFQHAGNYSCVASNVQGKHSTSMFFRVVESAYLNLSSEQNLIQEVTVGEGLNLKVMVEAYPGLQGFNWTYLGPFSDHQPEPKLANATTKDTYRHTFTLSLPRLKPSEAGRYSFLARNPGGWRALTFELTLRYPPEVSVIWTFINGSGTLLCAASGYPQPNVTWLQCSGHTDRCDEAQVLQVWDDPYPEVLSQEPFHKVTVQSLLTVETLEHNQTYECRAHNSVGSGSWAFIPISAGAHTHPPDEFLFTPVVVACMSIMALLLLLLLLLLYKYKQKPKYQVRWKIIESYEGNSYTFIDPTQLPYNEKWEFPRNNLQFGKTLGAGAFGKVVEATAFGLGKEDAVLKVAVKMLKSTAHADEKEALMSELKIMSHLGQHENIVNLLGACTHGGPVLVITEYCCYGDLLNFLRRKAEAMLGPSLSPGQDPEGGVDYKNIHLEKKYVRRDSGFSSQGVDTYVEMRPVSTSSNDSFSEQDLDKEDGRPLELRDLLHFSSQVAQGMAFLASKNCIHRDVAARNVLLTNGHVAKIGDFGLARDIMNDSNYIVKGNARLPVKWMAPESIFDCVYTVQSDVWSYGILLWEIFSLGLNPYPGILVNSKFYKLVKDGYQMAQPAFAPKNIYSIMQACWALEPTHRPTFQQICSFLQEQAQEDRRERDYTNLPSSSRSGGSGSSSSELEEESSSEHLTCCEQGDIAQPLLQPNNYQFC

[5] = biological target: T2, Myosin light chain kinase family member 4 (Homo sapiens) (UniProt Q86YV6); assay: Selectivity interaction (KinomeScan (DiscoverX)) EUB0001079a MYLK4; settings: at 1 µM
T2 sequence (whole entry): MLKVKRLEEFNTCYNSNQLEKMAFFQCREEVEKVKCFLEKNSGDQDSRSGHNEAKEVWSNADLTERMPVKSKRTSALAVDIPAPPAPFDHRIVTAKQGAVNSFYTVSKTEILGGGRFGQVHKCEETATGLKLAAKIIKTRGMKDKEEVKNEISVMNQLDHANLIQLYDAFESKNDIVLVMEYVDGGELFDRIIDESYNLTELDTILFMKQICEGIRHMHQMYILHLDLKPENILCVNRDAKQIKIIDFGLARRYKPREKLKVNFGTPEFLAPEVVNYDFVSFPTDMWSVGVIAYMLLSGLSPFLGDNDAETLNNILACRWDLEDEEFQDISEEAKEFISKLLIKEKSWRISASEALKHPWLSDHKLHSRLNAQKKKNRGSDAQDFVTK

[6] = biological target: Serine/threonine-protein kinase N2 (Homo sapiens, UniProt Q16513); assay: Selectivity interaction (Kinase panel (33PanQinase(R) Activity Assay)) EUB0000877a PKN2
Serine/threonine-protein kinase N2, sequence (Q16513 whole entry): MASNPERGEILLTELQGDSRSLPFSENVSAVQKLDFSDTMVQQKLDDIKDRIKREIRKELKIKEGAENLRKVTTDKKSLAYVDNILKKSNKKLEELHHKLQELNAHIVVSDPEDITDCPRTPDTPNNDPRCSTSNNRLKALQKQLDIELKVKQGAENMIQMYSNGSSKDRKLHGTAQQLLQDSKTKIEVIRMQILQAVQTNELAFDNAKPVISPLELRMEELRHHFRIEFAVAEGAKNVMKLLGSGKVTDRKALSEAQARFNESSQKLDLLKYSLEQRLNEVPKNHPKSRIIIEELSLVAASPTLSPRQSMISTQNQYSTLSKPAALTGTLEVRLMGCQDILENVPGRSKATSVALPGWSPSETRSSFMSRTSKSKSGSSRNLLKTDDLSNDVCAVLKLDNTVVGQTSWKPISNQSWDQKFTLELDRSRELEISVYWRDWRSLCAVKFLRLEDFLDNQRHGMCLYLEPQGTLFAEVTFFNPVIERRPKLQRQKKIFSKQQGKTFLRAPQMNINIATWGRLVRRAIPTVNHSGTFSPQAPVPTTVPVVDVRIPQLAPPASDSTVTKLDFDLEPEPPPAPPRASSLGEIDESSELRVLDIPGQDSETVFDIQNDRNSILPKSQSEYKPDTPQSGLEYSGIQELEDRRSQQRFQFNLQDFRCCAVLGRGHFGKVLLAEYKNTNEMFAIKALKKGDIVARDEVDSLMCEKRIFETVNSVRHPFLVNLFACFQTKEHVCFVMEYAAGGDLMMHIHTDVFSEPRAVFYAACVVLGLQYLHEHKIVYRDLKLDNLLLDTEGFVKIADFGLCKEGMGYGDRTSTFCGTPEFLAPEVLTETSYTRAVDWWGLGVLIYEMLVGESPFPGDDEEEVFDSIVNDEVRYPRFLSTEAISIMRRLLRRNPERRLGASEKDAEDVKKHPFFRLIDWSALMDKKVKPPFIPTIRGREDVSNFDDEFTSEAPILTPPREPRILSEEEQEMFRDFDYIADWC

[7] = biological target: RAF proto-oncogene serine/threonine-protein kinase (Homo sapiens) (UniProt P04049); settings: at 10 µM
[8] = biological target: Mitogen-activated protein kinase 14 (Homo sapiens, UniProt Q16539); assay: Selectivity interaction (ActivX KiNativ screen (kinase selectivity in THP-1 cell lysates)) EUB0000639a MAPK14; format: subcellular; settings: lysate, at 5 µM
Mitogen-activated protein kinase 14, sequence (Q16539 whole entry): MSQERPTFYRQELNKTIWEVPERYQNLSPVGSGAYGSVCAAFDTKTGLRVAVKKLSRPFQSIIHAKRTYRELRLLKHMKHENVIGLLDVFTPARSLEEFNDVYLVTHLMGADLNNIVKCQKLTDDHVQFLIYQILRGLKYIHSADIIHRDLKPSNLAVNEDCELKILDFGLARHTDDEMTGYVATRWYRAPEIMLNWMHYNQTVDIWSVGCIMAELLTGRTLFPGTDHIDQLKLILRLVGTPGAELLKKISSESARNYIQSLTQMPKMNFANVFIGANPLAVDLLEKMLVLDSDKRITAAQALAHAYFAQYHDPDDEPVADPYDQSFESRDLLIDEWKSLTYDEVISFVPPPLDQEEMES

[9] = biological target: Serine/threonine-protein kinase 24 (Homo sapiens) (UniProt Q9Y6E0); assay: Selectivity interaction (ActivX KiNativ screen (kinase selectivity in THP-1 cell lysates)) EUB0000639a STK24; format: subcellular; settings: lysate, at 0.01 µM
Serine/threonine-protein kinase 24 (Homo sapiens), sequence (Q9Y6E0 whole entry, looked up): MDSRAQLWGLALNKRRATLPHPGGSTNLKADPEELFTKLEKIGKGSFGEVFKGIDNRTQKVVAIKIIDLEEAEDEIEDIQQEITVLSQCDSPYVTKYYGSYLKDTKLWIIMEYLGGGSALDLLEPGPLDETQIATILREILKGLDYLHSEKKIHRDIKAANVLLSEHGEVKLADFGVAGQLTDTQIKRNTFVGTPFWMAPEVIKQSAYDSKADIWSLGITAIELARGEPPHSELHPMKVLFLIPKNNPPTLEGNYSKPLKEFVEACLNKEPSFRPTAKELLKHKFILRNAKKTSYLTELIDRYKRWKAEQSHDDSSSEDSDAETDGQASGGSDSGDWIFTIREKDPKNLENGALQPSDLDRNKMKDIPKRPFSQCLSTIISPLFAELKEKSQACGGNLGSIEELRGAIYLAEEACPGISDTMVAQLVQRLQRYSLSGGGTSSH

Aurora kinase B = Aurora kinase B (Homo sapiens, UniProt Q96GD4); assay: Selectivity interaction (ActivX KiNativ screen (kinase selectivity in THP-1 cell lysates)) EUB0000639a AURKB; format: subcellular; settings: lysate, at 0.2 µM
[10] = biological target: T3, Phosphatidylinositol 5-phosphate 4-kinase type-2 gamma (Homo sapiens) (UniProt Q8TBX8); assay: Selectivity interaction (KinomeScan (DiscoverX)) EUB0000607a PIP4K2C; settings: at 10 µM
T3 sequence (whole entry): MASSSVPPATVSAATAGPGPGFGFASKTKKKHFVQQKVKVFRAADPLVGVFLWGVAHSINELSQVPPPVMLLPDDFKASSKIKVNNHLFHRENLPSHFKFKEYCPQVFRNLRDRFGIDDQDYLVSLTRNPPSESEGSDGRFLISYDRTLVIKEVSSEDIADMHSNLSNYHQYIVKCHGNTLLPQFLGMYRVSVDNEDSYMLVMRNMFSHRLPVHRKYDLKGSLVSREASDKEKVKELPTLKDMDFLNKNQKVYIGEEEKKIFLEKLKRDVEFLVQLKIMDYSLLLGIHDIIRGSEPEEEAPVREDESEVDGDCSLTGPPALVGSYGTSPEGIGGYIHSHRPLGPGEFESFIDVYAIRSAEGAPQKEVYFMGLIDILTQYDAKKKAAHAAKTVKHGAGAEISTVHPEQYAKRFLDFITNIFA

[11] = biological target: Leukocyte tyrosine kinase receptor (Homo sapiens, UniProt P29376); assay: Selectivity interaction (KinomeScan (DiscoverX)) EUB0000618a LTK; settings: at 10 µM
Leukocyte tyrosine kinase receptor, sequence (P29376 whole entry): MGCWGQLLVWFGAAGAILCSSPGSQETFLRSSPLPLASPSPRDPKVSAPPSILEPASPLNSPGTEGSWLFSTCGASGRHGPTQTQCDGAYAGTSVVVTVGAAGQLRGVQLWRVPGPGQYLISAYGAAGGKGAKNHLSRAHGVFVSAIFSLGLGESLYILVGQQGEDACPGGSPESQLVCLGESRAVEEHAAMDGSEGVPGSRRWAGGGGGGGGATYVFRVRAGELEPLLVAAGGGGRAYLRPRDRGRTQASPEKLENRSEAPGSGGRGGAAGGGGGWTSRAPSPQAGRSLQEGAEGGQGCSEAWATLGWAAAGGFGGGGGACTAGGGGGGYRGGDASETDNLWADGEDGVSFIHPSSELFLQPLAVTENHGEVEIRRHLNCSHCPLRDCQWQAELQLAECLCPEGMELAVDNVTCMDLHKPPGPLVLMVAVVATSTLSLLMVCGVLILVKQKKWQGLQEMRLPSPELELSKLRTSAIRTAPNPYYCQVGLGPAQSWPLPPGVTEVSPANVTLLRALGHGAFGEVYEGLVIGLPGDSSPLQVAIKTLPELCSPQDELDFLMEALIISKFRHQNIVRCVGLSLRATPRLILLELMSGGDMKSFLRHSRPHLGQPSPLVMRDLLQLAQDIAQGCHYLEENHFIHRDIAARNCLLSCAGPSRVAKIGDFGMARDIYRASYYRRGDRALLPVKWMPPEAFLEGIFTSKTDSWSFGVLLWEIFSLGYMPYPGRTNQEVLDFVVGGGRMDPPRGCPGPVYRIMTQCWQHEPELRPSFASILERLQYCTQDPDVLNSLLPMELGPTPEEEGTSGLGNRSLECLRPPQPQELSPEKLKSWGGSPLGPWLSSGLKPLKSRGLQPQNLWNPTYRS

[12] = biological target: Protein kinase C delta type (Homo sapiens) (UniProt Q05655); assay: Selectivity interaction (Ambit KINOMEscan and KiNATiv profiling in Jurkat cells) EUB0000090b PRKCD; format: cell-based; settings: at 1 µM
Protein kinase C delta type (Homo sapiens), sequence (Q05655 whole entry, looked up): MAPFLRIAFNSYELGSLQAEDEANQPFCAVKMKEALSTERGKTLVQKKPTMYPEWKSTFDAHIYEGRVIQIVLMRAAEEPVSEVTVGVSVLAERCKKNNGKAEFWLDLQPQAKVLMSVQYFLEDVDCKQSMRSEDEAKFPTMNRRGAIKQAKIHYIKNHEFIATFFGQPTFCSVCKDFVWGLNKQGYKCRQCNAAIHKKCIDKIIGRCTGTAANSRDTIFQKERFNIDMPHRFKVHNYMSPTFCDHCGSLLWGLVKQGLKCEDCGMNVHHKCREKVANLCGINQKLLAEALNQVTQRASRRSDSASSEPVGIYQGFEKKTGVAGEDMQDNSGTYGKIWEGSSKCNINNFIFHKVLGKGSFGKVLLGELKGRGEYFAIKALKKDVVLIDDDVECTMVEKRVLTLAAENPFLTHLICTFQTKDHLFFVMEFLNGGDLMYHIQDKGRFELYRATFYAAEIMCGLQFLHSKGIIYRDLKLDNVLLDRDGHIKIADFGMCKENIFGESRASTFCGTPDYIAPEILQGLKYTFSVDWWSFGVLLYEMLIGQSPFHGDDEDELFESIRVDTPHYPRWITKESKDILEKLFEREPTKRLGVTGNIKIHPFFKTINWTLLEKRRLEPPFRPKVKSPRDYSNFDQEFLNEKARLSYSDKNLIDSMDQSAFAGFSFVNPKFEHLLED

Casein kinase I isoform gamma-1 (Homo sapiens), sequence (Q9HCP0 whole entry, looked up, canonical isoform): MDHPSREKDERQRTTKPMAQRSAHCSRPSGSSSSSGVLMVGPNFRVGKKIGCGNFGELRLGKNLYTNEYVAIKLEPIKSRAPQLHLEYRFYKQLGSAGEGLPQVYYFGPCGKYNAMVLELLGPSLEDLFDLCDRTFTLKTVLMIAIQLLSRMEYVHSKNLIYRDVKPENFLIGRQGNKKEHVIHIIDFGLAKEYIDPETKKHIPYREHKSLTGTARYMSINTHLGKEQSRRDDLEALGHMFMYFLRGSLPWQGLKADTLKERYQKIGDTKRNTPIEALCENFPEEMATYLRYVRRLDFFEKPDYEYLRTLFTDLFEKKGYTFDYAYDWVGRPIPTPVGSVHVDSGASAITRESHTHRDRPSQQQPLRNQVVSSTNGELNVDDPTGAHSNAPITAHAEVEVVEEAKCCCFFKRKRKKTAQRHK

Structure (SMILES): CCN(CC)CCCCNc1ncc2cc(-c3cc(OC)cc(OC)c3)c(NC(=O)NC(C)(C)C)nc2n1
- % of control [1]: 100%

Structure (SMILES): CCC(=O)N1CCN(c2ccc(-n3c(=O)ccc4cnc5ccc(-c6cnc7ccccc7c6)cc5c43)cc2C(F)(F)F)CC1
- % of control [2]: 100%

Structure (SMILES): C=CC(=O)Nc1cccc(C(=O)Nc2ccc(Nc3cc(-c4[nH]c(SC)nc4C)ccn3)cc2)c1
- % of control ([3]; at 1 µM): 88%
- % of control ([3]; at 5 µM): 70%

Structure (SMILES): Nc1cnc(N2CCc3cc(S(=O)(=O)Nc4c(F)cc(Cl)cc4F)cc(N4CCCC4=O)c32)nc1 [TP-020n]
- % of control [4]: 100%
- % of control [5]: 100%

Structure (SMILES): CCC(=O)N1CC[C@H](Nc2ncnc3c2CN(c2cnc(OC)c(C(F)(F)F)c2)CC3)C1 [LENIOLISIB]
- IC50 [6]: > 10 µM

Structure (SMILES): Cc1cc([C@@H](C)Nc2ccccc2C(=O)O)c2nc(N3CCOCC3)cc(=O)n2c1 [AZD-6482]
- % of control [7]: 100%

Structure (SMILES): CC[C@@H]1[C@H](F)C(=O)N[C@@H]1COc1nccc2cc(C(N)=O)c(OC)cc12 [ZIMLOVISERTIB]
- % of inhibition [8]: -3.8%
- % of inhibition [9]: 3.8%
- % of inhibition (Aurora kinase B): -1%

Structure (SMILES): CNC(=O)Nc1ccc(-c2nc(N3CC4CCC(C3)O4)c3cnn(C4CCC5(CC4)OCCO5)c3n2)cc1
- % of control [10]: 100%

Structure (SMILES): O[C@H]1CC[C@H](Nc2ncc3nc(Nc4c(F)cc(F)cc4F)n([C@H]4CCOC4)c3n2)CC1
- % of control [11]: 100%

Structure (SMILES): CN(C)C/C=C/C(=O)Nc1ccc(C(=O)N2CCCC(Nc3ncc(Cl)c(-c4c[nH]c5ccccc45)n3)C2)cc1 (centres undefined)
- % of control [12]: 75%

Source: ChEMBL document CHEMBL5465560, “Selectivity Literature for EUbOPEN Chemogenomic Library” (2024)
